Consider 19 molecules from PubChem BioAssay AID248 (DTP/NCI, 2004).

For this assay, the system named is L1210 leukemia ip in BDF1 mice, survival T/C. Briefly: NCI In Vivo Anticancer Drug Screen. Data for tumor model L1210 Leukemia (intraperitoneal) in B6D2F1 (BDF1) mice. The conditions noted are these: endpoint: mean survival time, higher = longer survival. The method, boiled down:
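Value reflects the ratio of survival in compound-treated mice to survival in vehicle-treated controls, with both groups carrying the same transplanted tumor.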

The mark [1] stands for this setting: dose: 100.0 mg/kg/injection, schedule: Q01DX001 (ip), vehicle: saline.
Setting [2] is: dose: 200.0 mg/kg/injection, schedule: Q01DX001 (ip), vehicle: saline.
[3] abbreviates: dose: 400.0 mg/kg/injection, schedule: Q01DX001 (ip), vehicle: saline.
Setting [4] is: dose: 100.0 mg/kg/injection, schedule: Q04DX002 (ip), vehicle: Klucel (hydroxypropylcellulose) (HPC).
Where [5] appears, read: dose: 200.0 mg/kg/injection, schedule: Q04DX002 (ip), vehicle: Klucel (hydroxypropylcellulose) (HPC).
Setting [6] is: dose: 400.0 mg/kg/injection, schedule: Q04DX002 (ip), vehicle: Klucel (hydroxypropylcellulose) (HPC).
Where [7] appears, read: dose: 100.0 mg/kg/injection, schedule: Q01DX009 (ip), vehicle: Klucel (hydroxypropylcellulose) (HPC).

The structures appear in SMILES notation. Toxic doses and inconclusive results are not listed. Square brackets hold non-standard residues; d marks the D form. Peptide text beside a SMILES is read from it. * marks the point of attachment. Cbz = O=C(OCc1ccccc1)*; Abu = CC[CH](N)C(=O)O; OBn = c1ccc(CO*)cc1; Bn = c1ccc(C*)cc1

For `COC(=O)C(CC(C)C)NC(=O)C(CSCc1ccccc1)NC(=O)OCc1ccccc1` (centres undefined) (Cbz-Cys(Bn)-Leu-OMe; configuration not given here), the T/C by setting is: (dose: 100.0 mg/kg/injection, schedule: Q04DX003 (ip), vehicle: DMSO) 102 % of control; (dose: 200.0 mg/kg/injection, schedule: Q04DX003 (ip), vehicle: DMSO) 104 % of control; (dose: 400.0 mg/kg/injection, schedule: Q04DX003 (ip), vehicle: DMSO) 96 % of control.

As for `CC1SC(=S)N(c2ccccc2)C1=O` (centres undefined), the T/C is 92 % of control (dose: 100.0 mg/kg/injection, schedule: Q01DX009 (ip), vehicle: saline with Tween-80) and 106 % of control (dose: 200.0 mg/kg/injection, schedule: Q01DX009 (ip), vehicle: saline with Tween-80).

In the case of `Cc1[nH]c2ccccc2c1C1=CC(=O)c2ccccc2C1=O`, the T/C was 93 % of control under setting [1], 112 % of control under setting [2] and 98 % of control under setting [3].

Consider `COc1cc(OC)c(NC(=O)C(Cl)(Cl)Cl)cc1Cl`, for which the T/C was 98 % of control under setting [4], 95 % of control under setting [5] and 95 % of control under setting [6].

Consider `O=C(Nc1ccccc1)c1cc(Cl)cc(Cl)c1Br`, for which the T/C was 96 % of control (dose: 100.0 mg/kg/injection, schedule: Q01DX001 (ip), vehicle: other); 96 % of control (dose: 200.0 mg/kg/injection, schedule: Q01DX001 (ip), vehicle: other); 95 % of control (dose: 400.0 mg/kg/injection, schedule: Q01DX001 (ip), vehicle: other).

For `CC(=O)Nc1cc(C)c(C)cc1[N+](=O)[O-]`, the T/C is, setting by setting: under setting [7], 102 % of control; (dose: 100.0 mg/kg/injection, schedule: Q04DX003 (ip), vehicle: Klucel (hydroxypropylcellulose) (HPC)) 96 % of control; (dose: 200.0 mg/kg/injection, schedule: Q01DX009 (ip), vehicle: Klucel (hydroxypropylcellulose) (HPC)) 100 % of control; (dose: 200.0 mg/kg/injection, schedule: Q04DX003 (ip), vehicle: Klucel (hydroxypropylcellulose) (HPC)) 102 % of control; (dose: 400.0 mg/kg/injection, schedule: Q01DX009 (ip), vehicle: Klucel (hydroxypropylcellulose) (HPC)) 105 % of control; (dose: 400.0 mg/kg/injection, schedule: Q04DX003 (ip), vehicle: Klucel (hydroxypropylcellulose) (HPC)) 103 % of control.

As to `O=C(NCC(O)CNC(=O)Nc1ccc(C2=NCCN2)cc1)Nc1ccc(C2=NCCN2)cc1`, the T/C is, setting by setting: (dose: 3.75 mg/kg/injection, schedule: Q01DX Z (ip), vehicle: carboxymethylcellulose (CMC)) 97 % of control; (dose: 15.0 mg/kg/injection, schedule: Q01DX Z (ip), vehicle: carboxymethylcellulose (CMC)) 244 % of control; (dose: 21.0 mg/kg/injection, schedule: Q01DX Z (ip), vehicle: carboxymethylcellulose (CMC)) 216 % of control; (dose: 30.0 mg/kg/injection, schedule: Q01DX Z (ip), vehicle: carboxymethylcellulose (CMC)) 164 % of control; (dose: 62.0 mg/kg/injection, schedule: Q01DX Z (oral), vehicle: carboxymethylcellulose (CMC)) 110 % of control; (dose: 84.0 mg/kg/injection, schedule: Q01DX Z (ip), vehicle: carboxymethylcellulose (CMC)) 104 % of control. For the same molecule, the T/C (dose: 125.0 mg/kg/injection, schedule: Q01DX Z (oral), vehicle: carboxymethylcellulose (CMC)) is 108 % of control; the T/C (dose: 250.0 mg/kg/injection, schedule: Q01DX Z (oral), vehicle: carboxymethylcellulose (CMC)) was 104 % of control; the T/C (dose: 500.0 mg/kg/injection, schedule: Q01DX Z (oral), vehicle: carboxymethylcellulose (CMC)) was 97 % of control.

For the molecule `COc1cc2c(cc1OC)-c1c([O-])c3cc(OC)c(OC)cc3n[n+]1CC2`, the T/C reads like this: (dose: 75.0 mg/kg/injection, schedule: Q01DX001 (ip), vehicle: saline) 98 % of control; (dose: 150.0 mg/kg/injection, schedule: Q01DX001 (ip), vehicle: saline) 86 % of control; (dose: 300.0 mg/kg/injection, schedule: Q01DX001 (ip), vehicle: saline) 89 % of control.

Turning to `Cc1ccc(S(=O)(=O)OCC2OC(n3cnc4c(N)ncnc43)C(OS(=O)(=O)c3ccc(C)cc3)C2N=[N+]=[N-])cc1` (centres undefined), the T/C by setting is: (dose: 100.0 mg/kg/injection, schedule: Q01DX005 (ip), vehicle: saline) 106 % of control; (dose: 200.0 mg/kg/injection, schedule: Q01DX005 (ip), vehicle: saline) 92 % of control.

`O=[N+]([O-])c1cc2c(cc1Br)-c1ccccc1C2`: the T/C is, setting by setting: (dose: 100.0 mg/kg/injection, schedule: Q01DX005 (ip), vehicle: Klucel (hydroxypropylcellulose) (HPC)) 98 % of control; under setting [4], 93 % of control; (dose: 200.0 mg/kg/injection, schedule: Q01DX005 (ip), vehicle: Klucel (hydroxypropylcellulose) (HPC)) 94 % of control; under setting [5], 111 % of control; (dose: 400.0 mg/kg/injection, schedule: Q01DX005 (ip), vehicle: Klucel (hydroxypropylcellulose) (HPC)) 122 % of control; under setting [6], 117 % of control.

Turning to `O=C(NC(=S)Nc1cccc(Cl)c1)c1ccccc1F`, the T/C (dose: 25.0 mg/kg/injection, schedule: Q01DX009 (ip), vehicle: Klucel (hydroxypropylcellulose) (HPC)) is 87 % of control; the T/C (dose: 50.0 mg/kg/injection, schedule: Q01DX009 (ip), vehicle: Klucel (hydroxypropylcellulose) (HPC)) is 86 % of control; the T/C under setting [7] is 87 % of control.

`NC(CCl)=NCCCCN=C(N)CCl`: the T/C is, setting by setting: (dose: 12.5 mg/kg/injection, schedule: Q01DX009 (ip), vehicle: saline) 108 % of control; (dose: 12.5 mg/kg/injection, schedule: Q04DX002 (ip), vehicle: saline) 100 % of control; (dose: 25.0 mg/kg/injection, schedule: Q01DX009 (ip), vehicle: saline) 101 % of control; (dose: 25.0 mg/kg/injection, schedule: Q04DX002 (ip), vehicle: saline) 124 % of control.

`CS(=O)(=O)OCCC(COS(C)(=O)=O)S(=O)(=O)Cc1ccccc1` (centres undefined): the T/C runs as follows: (dose: 15.0 mg/kg/injection, schedule: Q01DX001 (ip), vehicle: saline) 101 % of control; (dose: 30.0 mg/kg/injection, schedule: Q01DX001 (ip), vehicle: saline) 104 % of control.

`O=C(O)c1ccc(NC(=S)S)cc1`: the T/C under setting [4] was 103 % of control, the T/C under setting [5] is 98 % of control and the T/C under setting [6] was 98 % of control.

With `CCC(NC(=O)OCc1ccccc1)C(=O)NC(C(=O)OCc1ccccc1)C(C)CC` (centres undefined) (Cbz-[Abu]-Ile-OBn; configuration not given here), the T/C is 92 % of control (dose: 100.0 mg/kg/injection, schedule: Q04DX003 (ip), vehicle: saline with Tween-80); 92 % of control (dose: 200.0 mg/kg/injection, schedule: Q04DX003 (ip), vehicle: saline with Tween-80); 93 % of control (dose: 400.0 mg/kg/injection, schedule: Q04DX003 (ip), vehicle: saline with Tween-80).

In the case of `Cc1ccc(O)c(C2CC3CCC2C3)c1` (centres undefined), the T/C was 97 % of control (dose: 100.0 mg/kg/injection, schedule: Q04DX003 (ip), vehicle: saline + alcohol); 92 % of control (dose: 200.0 mg/kg/injection, schedule: Q04DX003 (ip), vehicle: saline + alcohol); 95 % of control (dose: 400.0 mg/kg/injection, schedule: Q04DX003 (ip), vehicle: saline + alcohol).

Take `CCCCCCCCCCCCCCNC1=C(C)C(=O)C(NCCCCCCCCCCCCCC)=C(C)C1=O`: the T/C was 98 % of control (dose: 100.0 mg/kg/injection, schedule: Q01DX001 (ip), vehicle: carboxymethylcellulose (CMC)); 93 % of control (dose: 200.0 mg/kg/injection, schedule: Q01DX001 (ip), vehicle: carboxymethylcellulose (CMC)); 89 % of control (dose: 400.0 mg/kg/injection, schedule: Q01DX001 (ip), vehicle: carboxymethylcellulose (CMC)).

For `c1cc(C2OCCO2)ccn1`, the T/C is 101 % of control under setting [1]; 107 % of control (dose: 100.0 mg/kg/injection, schedule: Q04DX003 (ip), vehicle: saline); 100 % of control under setting [2]; 100 % of control (dose: 200.0 mg/kg/injection, schedule: Q04DX003 (ip), vehicle: saline); 100 % of control under setting [3]; 97 % of control (dose: 400.0 mg/kg/injection, schedule: Q04DX003 (ip), vehicle: saline).

Consider `CCOc1ccc(/C=N/NC(=O)c2cccc3ccccc23)cc1OCC`, for which the T/C by setting is: under setting [1], 90 % of control; under setting [3], 90 % of control.
